According to paper PMC7763331, “First Evidence of a Protective Effect of Plant Bioactive Compounds against H2O2-Induced Aconitase Damage in Durum Wheat Mitochondria” (Antioxidants, 2020):

How the values were obtained:
m-aconitase [1] = target: T1, m-aconitase (Sus scrofa, UniProt P16276); experiment: aconitase/isocitrate dehydrogenase coupled assay, NADPH absorbance at […] nm; type: biochemical; conditions: pH 8.0, 25 °C, 20 mM citrate; 10 min pre-incubation, no H2O2; activator, upper limit (up to about)
T1 construct: gene ACO2
T1 sequence (P16276 28-781): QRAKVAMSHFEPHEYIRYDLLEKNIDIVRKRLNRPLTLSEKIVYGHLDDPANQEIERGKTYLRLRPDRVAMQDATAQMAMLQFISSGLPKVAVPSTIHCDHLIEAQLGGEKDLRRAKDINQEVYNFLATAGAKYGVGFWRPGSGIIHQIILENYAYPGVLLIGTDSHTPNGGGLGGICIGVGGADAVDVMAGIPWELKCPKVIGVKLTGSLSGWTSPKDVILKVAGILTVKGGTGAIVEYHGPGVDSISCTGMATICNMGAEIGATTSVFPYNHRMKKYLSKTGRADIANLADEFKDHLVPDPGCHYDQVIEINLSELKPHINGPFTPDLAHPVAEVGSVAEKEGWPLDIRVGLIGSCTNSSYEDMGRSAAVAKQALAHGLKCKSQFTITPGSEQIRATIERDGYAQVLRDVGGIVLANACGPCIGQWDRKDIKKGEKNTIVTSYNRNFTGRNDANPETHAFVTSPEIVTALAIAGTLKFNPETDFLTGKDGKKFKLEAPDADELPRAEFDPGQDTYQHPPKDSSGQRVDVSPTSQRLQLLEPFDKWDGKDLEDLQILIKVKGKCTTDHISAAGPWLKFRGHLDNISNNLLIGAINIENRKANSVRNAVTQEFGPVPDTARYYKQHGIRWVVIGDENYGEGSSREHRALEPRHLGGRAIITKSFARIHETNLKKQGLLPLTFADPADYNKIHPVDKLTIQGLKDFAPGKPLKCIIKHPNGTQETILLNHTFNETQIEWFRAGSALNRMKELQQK

m-aconitase [2] = target: T1, m-aconitase; experiment: as above; type: biochemical; conditions: pH 8.0, 25 °C, 20 mM citrate; 10 min pre-incubation, no H2O2; activator, upper limit (up to about); remark: listed apart in the source
m-aconitase [3] = target: T1, m-aconitase; experiment: as above; type: biochemical; conditions: pH 8.0, 25 °C, 20 mM citrate; 10 min pre-incubation, no H2O2; activator
DWM-aconitase = system: T2, DWM-aconitase; conditions: 100 mM Tris-HCl pH 8.0, 0.1% Triton X-100, 25 °C, 1 mM NADP+, 5 mM MnCl2; citrate 0.5–20 mM; lysed mitochondria
T2 construct: gene ACO

SMILES: COc1cc(/C=C/C(=O)O)ccc1O [ferulic acid]
- % activation at 100-150 μM (m-aconitase [1]): ~ 10%

SMILES: O=c1c(O)c(-c2ccc(O)c(O)c2)oc2cc(O)cc(O)c12 [quercetin]
- % activation at 150 μM (m-aconitase [2]): ~ 20%

SMILES: O=c1cc(-c2ccc(O)cc2)oc2cc(O)cc(O)c12 [apigenin]
- % activation at 50-150 μM (m-aconitase [3]): ~ 10%

SMILES: O=C(O)CC(O)(CC(=O)O)C(=O)O [citrate]
- Km (DWM-aconitase): 4.8 ± 0.9 mM
